Measurements published in patent publication US11548925B2, “CACNA1H-derived tumor antigen polypeptide and use thereof” (Genoimmune Therapeutics Co., Ltd., priority 2016, dated 2023).

Experiments:
[1] = system: H2087-TLISSLMPI (SEQ ID NO: 2) subcutaneous tumor; test: DC peptide vaccine in H2087-[…] subcutaneous tumor model; type: in vivo, NOD/SCID mice; details: DC loaded with peptide, intracutaneous, 2 injections; vs DC loaded with wild-type peptide
Method: (§1) 600-900 ml of anticoagulated peripheral blood was collected from healthy volunteers for isolating peripheral blood mononuclear cells (PBMCs) via Ficoll. Cells were collected for use. 2×10^7 PBMCs per 0.5 ml was intraperitoneally injected into each of 300 NOD SCID mice without immune leakage to perform human immune reconstitution in NOD SCID mice. After 4 weeks, the mice were selected to be inoculated with the human lung cancer cell line.
The human non-small cell lung adenocarcinoma cell line H2087-[…] (SEQ ID NO: 2) as established in Example 7 was cultured in DMEM medium containing 10% fetal bovine serum, 100 U/mL penicillin and 100 U/mL streptomycin in an incubator at 37° C., 5% CO2. H2087-[…] […] The long diameter a and the short diameter b of the tumor were measured with a vernier caliper every 2-3 days and the size of the tumor was calculated as a*b*b/2. The mice and tumors were weighed and recorded every day. […] The tumor volume and the survival rate of mice were recorded every 2 days. […]
Tumor-bearing mice were randomly divided into 7 groups: DC loaded with wild-type peptide group, DC loaded with the mutant peptide […] […] After injection, vital signs of the mice were observed, and the vertical and horizontal dimensions of tumors were measured with a vernier caliper every two days. Tumor volume was calculated as follows: tumor volume=½×length×width^2. […]

[2] = system: H2087-TLISSLMPI (SEQ ID NO: 2) subcutaneous tumor; test: Peptide + Freund's adjuvant vaccine in H2087-[…] subcutaneous tumor model; type: in vivo, NOD/SCID mice; details: peptide 100 μg/mouse + Freund's adjuvant s.c., 4 immunizations; vs adjuvant alone and wild-type peptide
Method: as §1
The human non-small cell lung adenocarcinoma cell line H2087-[…] (SEQ ID NO: 2) as established in Example 7 was cultured in DMEM medium containing 10% fetal bovine serum, 100 U/mL penicillin and 100 U/mL streptomycin in an incubator at 37° C., 5% CO2. H2087-[…] (SEQ ID NO: 2) tumor cells were collected, centrifuged at 1500 rpm for 5 min, and washed 3 times with sterile physiological saline. The tumor cells were diluted appropriately. […] The long diameter a and the short diameter b of the tumor were measured with a vernier caliper every 2-3 days and the size of the tumor was calculated as a*b*b/2. The mice and tumors were weighed and recorded every day. […] The tumor volume and the survival rate of mice were recorded every 2 days.
The H2087-[…] […] The longest diameter (a) and the shortest diameter (b) of a tumor were measured with a vernier caliper every 2 days. Tumor volume was calculated as: ½×length×width^2. […]

“TLISSLMPI [tumor antigen peptide from CACNA1H mutation, position 1428 arginine to methionine]” was tested, and the “Survival period of mice” value [1] was “significantly prolonged survival period of mice”, the Tumor growth [1] was “slowed down tumor growth in mice” and the “Survival period of mice” value [2] was “prolonged the survival period of mice”. For the same sequence, the Tumor growth [2] was “effectively inhibited tumor growth”.
